The source of these data is patent US12012574B2, “Process for removing dry surface biofilm” (Whiteley Corporation Pty. Ltd., priority 2013, dated 2024).

SMILES strings stand for the structures.

The subject of assay [1] is 12 day dry surface biofilm (Staphylococcus aureus ATCC 25923). Kind of assay: Initial screening using TOC to assess removal of dry surface biofilm. As to conditions: for TOC Coupons with Biofilm: biofilm coated Pyrex coupons after cleaning, Table 14 dilution; for TOC due to biofilm: biofilm coupon TOC minus blank coupon TOC; for TOC Blank coupons: fresh clean coupons exposed to test product at Table 14 dilution; for % Reduction (TOC): relative to negative control (Milli-Q water). In kind it is cell-based.

The test system of assay [2] is 12 day dry surface biofilm. Kind of assay: Protein removal from dry surface biofilm coated coupons (BCA assay). In kind it is cell-based, Staphylococcus aureus. As for the experimental part: 12 day biofilm was grown on PET coupons following the methodology of Example 8. The rods containing the biofilm coated coupons were then removed and any loosely bound biofilm washed off with Milli-Q water as described in Example 8.
One rod holding three dry surface biofilm coated coupons was then placed into 30 ml of a solution of Example 9 (17 g/litre) for 10 minutes. A second rod was placed into 30 ml of a solution of Matrix (1:50 dilution), and a third rod placed into 30 ml Milli-Q water to serve as a positive control. An additional rod, holding 3 uncoated coupons was sterilized and used as a negative control.
After 10 minutes, each rod was placed into 30 ml of 1M sodium hydroxide solution to elute off all remaining protein. Aliquots from each solution were then taken and tested for protein using a Bicinchroninic Acid (BCA) assay, using a micro BCA test kit (Sigma Aldrich).
In order to perform the BCA assay, a series of standard solutions of bovine serum albumin were prepared to produce a standard curve. […] The samples were then incubated for 60 minutes at 60° C., and the absorbance at 562 nm read using a spectrophotometer (see Table 17). […]

In assay [3] the test system is 12 day dry surface biofilm. Kind of assay: Bacterial reduction from 12 day dry surface biofilm, clean and dirty conditions (Examples 15, 16). In kind it is cell-based, Staphylococcus aureus. As to conditions: for Log reduction: 5 minute contact time. On the procedure: The bacterial reductions obtained from a 12 day dry surface biofilm were assessed under clean conditions using Example 9, Chlorclean tablets and a generic SDIC tablet
Each test product was dissolved in water.
Coupons coated in 12-day dry surface biofilm were produced as per Example 8. 2 ml of each test solution, followed by 2 ml of water were added to the wells in a tissue culture plate.
After a 5 minute contact time, coupons were removed from the disinfectant solutions, rinsed twice using 30 ml phosphate buffered saline for 5 seconds, and then placed into 5 ml tubes containing 2 ml of a neutralizer solution comprising 6% Tween 80 plus 1% sodium thiosulfate plus 5% bovine serum plus 10% Bovine Serum Albumin.
The tubes were sonicated for 20 minutes and then vortexed for 2 minutes. Serial 10-fold dilutions were then made and 100 ul of neat, 10^−1, 10^−2, 10^−3 and 10^−4 dilutions were plated on Horse Blood Agar plates. The plates were incubated at 37° C. overnight and then enumerated.
Control coupons, not exposed to disinfectant were similarly worked up to allow the log reductions to be calculated
The bacterial reductions obtained from a 12 day dry surface biofilm were assessed under dirty conditions using Example 9, Chlorclean tablets and a generic SDIC tablet. Each test product was dissolved in artificial hard water containing 340 ppm CaCO3 to which was added 5% Bovine Calf Serum.
Coupons coated in 12-day dry surface biofilm were produced as per Example 8. 2 ml of each test solution, followed by 2 ml of hard water to which was added 5% bovine calf serum were added to the wells in a tissue culture plate.
Control coupons, not exposed to disinfectant were similarly worked up to allow the log reductions to be calculated.

The test system of assay [4] is dry surface biofilm of S. aureus. Kind of assay: Kill of organisms within dry surface biofilm (Example 18). In kind it is cell-based, Staphylococcus aureus.
Assay [5] relates to Staphylococcus aureus dry surface biofilm. Conditions: solution containing 20,000 ppm available chlorine; cited from earlier work.
For a further assay, the system named is planktonic S. aureus. Kind of assay: Disinfectant efficacy against planktonic bacteria (Example 17). The assay is classed as cell-based, Staphylococcus aureus. Conditions: dirty conditions (5% bovine calf serum), 5 minutes contact time.
[6] abbreviates: absence of biological soil, five minutes contact time.
The mark [7] stands for this setting: dirty conditions (presence of an organic soil), 5 minutes contact time.

As to `[Na+].[OH-]` [1M NaOH, sodium hydroxide], in assay [1], the “TOC Coupons with Biofilm” value came out at 0.16 µg, the “TOC due to biofilm” value is -0.01 µg, the “TOC Blank coupons” value was determined as 0.17 µg and the “% Reduction (TOC)” value is 100%.

Compound `O=c1nc([O-])n(Cl)c(=O)n1Cl.[Na+]` [SDIC, sodium diisocyanurate] returned a Percentage reduction in assay [2] (Example 14: protein, shorter contact time (not given)) of 17.65. In addition, the Neutraliser control worked out at 0.045 in assay [3] (clean conditions) and 0.018 in assay [3] (dirty conditions). For the same compound, the Log reduction in assay [3] (clean conditions) is listed as 6.55 log; in assay [3] (dirty conditions: hard water 340 ppm CaCO3 with 5% Bovine Calf Serum), 0.007 log. In addition, the “log10 reduction of biofilm viability” value amounted to 2.85 log10 in assay [4] (setting [6]); 3 log10 in assay [4] (absence of biological soil, five minutes contact time, listed as SIDC); 0.03 log10 in assay [4] (setting [7]).

Consider `OCl` [sodium hypochlorite, Sodium hypochlorite], for which, in assay [1], the “TOC Coupons with Biofilm” value amounted to 1.87 µg, the “TOC due to biofilm” value is 1.53 µg, the “TOC Blank coupons” value came to 0.34 µg and the “% Reduction (TOC)” value is 79%. For the same compound, the Percentage protein reduction in assay [2] (Example 13: 10 minute contact time, calculated from positive control (Milli-Q water)) is given as 11.50. In addition, the survival after exposure entry in assay [5] is on record as “still showing survivors”.

`OO` [hydrogen peroxide]: in the assay on planktonic S. aureus, the “log10 reduction / activity” value is given as “completely deactivated”. Also, the “log10 reduction of biofilm viability” value in assay [4] (setting [6]) was “zero and no effect”; in assay [4] (setting [7]), “zero”.
